Experimental data published in patent US11730830B2, “Topical application of nerve labeling dyes for image-guided surgery” (General Electric Company, priority 2016, dated 2023).

What was measured:
[1] = test system: rat nerve tissue sections; test: Ex vivo labeling of cryosectioned nerve tissue; details: 10 uM, 1 h, buffer with 10% Cremophor EL and 65% rat serum in PBS
Excerpt: Various nerves were harvested from male Sprague Dawley rats. Tissue was fixed by perfusion and post-fixed with 10% neutral buffered formalin. Following post-fixation, tissue was cryoprotected in a 20% sucrose solution made in phosphate buffered saline (PBS). Nerves were then flash-frozen using methanol and dry ice in OCT media. In some cases, polyvinylidene fluoride membranes were used to help keep the nerves vertical in the OCT media. 5-10 micron section were sliced on a Leica microtome and stored in a −80° C. freezer prior to staining with agents (1)-(5).
For ex vivo staining of nerve sections, the slides were rinsed in PBS (3×5 min). Contrast agent (with a final concentration of 10 uM) was added onto the tissue in a buffer containing 10% Cremophor EL and 65% rat serum in PBS. The slides were incubated for 1 h in a dark, humid chamber after which they were washed with PBS (3×5 min), cover-slipped, and imaged using a custom filter cube (excitation filter: 387 nm with 11 nm band pass, 409 nm dichroic mirror; emission filter: 409 nm long pass). A buffer only control was also performed using exactly the same procedure to determine autofluorescence under the same settings.
Molecules that are related to the “push-pull” core structure of this class of compound would also benefit from this new method of application. The following is an example of ex vivo labeling of resected nerve tissue. In here, compounds used to stain cryo sectioned nerve tissue from rats.

nerves = test: Intraoperative topical application at the surgical site, fluorescence nerve imaging in murine model; assay type: in vivo, mouse
Experimental: (§1) Commercial small animal system: A fluorescence stereomicroscope (SteREO Lumar V12, Carl Zeiss Inc., Thornwood, N.Y.) equipped with a multispectral imaging camera (Nuance, CRI, Woburn, Mass.) was used with an exposure time of 1-5 s. Excitation of the flurophores was achieved using a filter centered at 406 nm with a 15 nm bandwidth. The fluorescence emission spectrum was recorded at wavelengths ranging from 420 to 720 nm at 10-nm increments using the attached multispectral camera. Alternatively, we had also used an emission filter with 550 long pass filter (in the absence of multispectral camera).
(§2) The laparoscope module comprises a standard 10 mm zero degree surgical laparoscope with 70 degree field of view, a 4 mm diameter, 1800 mm long laparoscope light guide, 35 mm video coupler, a compact 90 gram, 659×494 pixel GigE color camera (acA640-90gc Basler, Ahrensburg, Germany), and a 405 nm blocking filter (BLP01-405R Semrock, Rochester, N.Y.), which has >97% transmission from 420 to 800 nm. The ⅓″ format sensor provides high sensitivity with 7.4 μm pixel size and adequate field of view (40 degrees out of 70 degrees passed by the laparoscope). The video coupler interfaces with the eyepiece of the laparoscope providing an interchangeable set up for different types of laparoscopes. The 405 nm filter is secured directly in front of the image sensor with a c-mount retaining ring. The camera threads onto the video coupler directly.
Illumination for white light and fluorescence imaging is coupled into a single light guide using conventional optics. The light coupling module consists of two 32 mm aspheric lenses to collimate a white light LED and a 500 mW, 405 nm blue laser diode coupled into a multimode fiber with 400 μm diameter (Shanghai Laser & Optics Century Co., Ltd., China). The LED spectrum is filtered with a 450 nm long pass filter (NT49-819, Edmund Optics, Barrington, N.J.) to minimize excitation of the fluorescent agent, while maintaining the white light color spectrum. The LED and laser are combined with a 425 nm dichroic mirror (DMLP425R, Thorlabs). The combined illumination is coupled into the light guide with a third 32 mm aspheric lens (ACL4532, Thorlabs). The maximum irradiance from the LED and 405 nm laser are 2.0 mW/cm2 and 7.3 mW/cm2, respectively, at 25 mm from the tip of the laparoscope. Formulation, dosing, and kinetics for in vivo imaging following systemic IV injection of contrast agent in animal model:
Several different formulations were tested, including but not limited to: • Formulation 1: 10% PEG-300; 20% PG; 0.4% Carbopol; 69.6% water; • Formulation 2: 10% DMSO; 20% PEG-800; 20% PG; 0.1% Polysorbate-80; 49.9% Water; • Formulation 3: 30% PEG-300; 5% DMSO; 10% PVA; 55% water; • Formulation 4: 30% PEG-300; 10% PVA; 60% water; • Formulation 5: 30% PEG-300; 5% DMSO; 30% Pluronic F-68; 0.1% Polysorbate-80; 34.9% water; • Formulation 6: 20% PEG-300; 10% PG; 5% PVP; 5% Laurocapram; 60% water; • Formulation 7: 20% PEG-300; 10% PG; 5% PVP; 5% Laurocapram; 5% EtOH; 5% oleic acid; 10% Tween-80; 40% water; where: PVA=polyvinyl alcohol; PVP=polyvinyl pyrrolidone; and PEG=polyethylene glycol. […]
Topically administered nerve labeling dyes were also able to label nerves in a living animal. The fluorescence from nerves can be detected within minutes after intraoperative topical application. Representative white light and fluorescence images of topically administered FORMULA I(f) in a mouse are shown in FIG. 2A (white light) and FIG. 2B (fluorescence). […]

sciatic nerve = test: Kinetics of uptake and clearance after systemic IV injection, in vivo fluorescence imaging; design: species or system murine; details: IV injection 16.6 mg/kg
Experimental: as §1
(§3) For systemic administration by IV injection, the contrast agents were formulated using the following excipients: 5-15% propylene glycol (Fisher P355-1), 5-30% 2-hydroxypropyl-β-cyclodextrin (2-HPβCD, Sigma H5784) and 70-90% distilled/deionized water. In some cases, PEG-300 and DMSO were also added. The IV formulation was brought to a final pH of 7.4 using 1M of hydrochloric acid.
Specifically, IV formulation for FORMULA I(f) consisted of 80% distilled/deionized water, 10% 2-hydroxypropyl-β-cyclodextrin (2-HPβCD, Sigma H5784), and 10% propylene glycol (Fisher P355-1). […]
A dose of 16.6 mg/kg of FORMULA I(f) was used for measuring the nerve fluorescence at 0.5, 1, 2, 3 and 4 hours after IV injection. […]

nerve = test: Intraoperative topical application in porcine surgical model, real-time fluorescence imaging; assay type: in vivo; details: pig
Excerpt: as §2
Illumination for white light and fluorescence imaging is coupled into a single light guide using conventional optics. The light coupling module consists of two 32 mm aspheric lenses to collimate a white light LED and a 500 mW, 405 nm blue laser diode coupled into a multimode fiber with 400 μm diameter (Shanghai Laser & Optics Century Co., Ltd., China). The LED spectrum is filtered with a 450 nm long pass filter (NT49-819, Edmund Optics, Barrington, N.J.) to minimize excitation of the fluorescent agent, while maintaining the white light color spectrum. […]

[2] = Solubility check of the IV formulation; assay type: physicochemical; details: propylene glycol, 2-HPβCD, water, pH 7.4; visual, centrifugation, buffer dissolution, dynamic light scattering
Experimental: as §3
Specifically, IV formulation for FORMULA I(f) consisted of 80% distilled/deionized water, 10% 2-hydroxypropyl-β-cyclodextrin (2-HPβCD, Sigma H5784), and 10% propylene glycol (Fisher P355-1).

| time of maximum sciatic nerve and adipose tissue fluorescence (sciatic nerve; measured at 0.5, 1, 2, 3 and 4 hours) | solubility in the IV formulation [2] | SMILES | fluorescent staining of nerve tissue sections [1] | nerve labeling by topical application (nerves; mouse, small animal commercial instrument) | best nerve-to-muscle ratio (sciatic nerve; 1 h post-injection, murine model) | topical dose that effectively visualizes fluorescent nerves (nerves; Formulation 6, incubated 3 minutes, irrigated with saline, mouse model) | penetration into the nerve bundle, fluorescence microscopy of cryosectioned sciatic nerve (nerves; after topical application, irrigation and excision, 15 micron sections, murine model) | fluorescence intensity from surrounding muscle tissue, topical versus systemic administration (nerves; topical about 0.1 milligrams in Formulation 4 versus IV about 16 mg/kg, multispectral imaging, murine model) | detection of very fine nerve fibers in a brachial plexus branch (nerves; topical in Formulation 4, 5 minutes, irrigated with sterile saline, dual-mode laparoscopic instrument, mouse) | nerve visibility under fluorescence imaging versus white light (nerve; 0.3 milligrams in Formulation 6, retroperitoneal area, 3 minutes, saline irrigation) | nerve visibility under fluorescence guidance versus white light (nerve; 4 milligrams in Formulation 4, 5 minutes, warm saline irrigation) |
| --- | --- | --- | --- | --- | --- | --- | --- | --- | --- | --- | --- |
|  |  | COc1cc(/C=C/c2ccc(C#N)cc2)ccc1/C=C/c1ccc(N)cc1 [FORMULA I(d)] | most robust fluorescent staining | fluorescence nerve labeling |  |  |  |  |  |  |  |
|  |  | COc1cc(/C=C/c2ccc(S(C)(=O)=O)cc2)ccc1/C=C/c1ccc(N)cc1 [FORMULA I(e)] | most robust fluorescent staining |  |  |  |  |  |  |  |  |
| 1 h | Complete solubility | COc1cc(/C=C/c2ccc(S(=O)(=O)N3CCN(CCO)CC3)cc2)ccc1/C=C/c1ccc(N)cc1 [FORMULA I(f)] | most robust fluorescent staining |  | 3.7 | 0.01 mg | donut-shaped myelin bundles are stained | lower across all the emission wavelengths | more readily detected under fluorescence guidance | more pronounced under fluorescence imaging compared to white light imaging | highly detectable under fluorescence guidance |
